Test results as given in patent US20250163119A1, “COMPOUNDS FOR THE TREATMENT OF DIABETES OR OBESITY” (Eli Lilly and Company, priority 2023, published 2025).
Several values for one entry are separate records, joined by “and”; a condition that tells them apart may be missing. Equal values may be shown once. Read-outs that look alike come from different tables or passages of the source. *1 amine or outer side, *2 acyl side, *3 side chain or, on linkers, in order; H or OH if unused. Where a SMILES comes first, the peptide text is derived from it. Side-chain parts run from the residue outwards. [ ]: non-standard residue; d: D form. The star is where a group is joined. C20 diacid = O=C(O)CCCCCCCCCCCCCCCCCCC(=O)*; γGlu = O=C(O)[C@H](CCC(=O)[*:2])N[*:1]; NMeI = CC[C@H](C)[C@H](NC)C(=O)O; αMeL = CC(C)C[C@](C)(N)C(=O)O; AEEA = NCCOCCOCC(=O)O; Aib = CC(C)(N)C(=O)O

Assay: Pharmacokinetics in Sprague Dawley rats, single subcutaneous or intravenous dose (incl. 10, 30, 100 nmol/kg dose response)
Format: in vivo
[1] = male, Sprague Dawley, rat, plasma, iv, 196 nmol/kg, single intravenous dose 196 nmol/kg, individual animal
[2] = male, Sprague Dawley, rat, plasma, iv, 196 nmol/kg, single intravenous dose 196 nmol/kg, mean
[3] = male, Sprague Dawley, rat, plasma, sc, 196 nmol/kg, single subcutaneous dose 196 nmol/kg, individual animal
[4] = male, Sprague Dawley, rat, plasma, sc, 196 nmol/kg, single subcutaneous dose 196 nmol/kg, individual animal, read-out: CL/F (converted)
[5] = male, Sprague Dawley, rat, plasma, sc, 196 nmol/kg, single subcutaneous dose 196 nmol/kg, mean
[6] = male, Sprague Dawley, rat, plasma, sc, 196 nmol/kg, single subcutaneous dose 196 nmol/kg, mean, read-out: CL/F (converted)
[7] = male, Sprague Dawley, rat, plasma, sc, 196 nmol/kg, single subcutaneous dose 196 nmol/kg, mean, read-out: Tmax
[8] = rat, plasma, sc, single subcutaneous dose 196 nmol/kg, male Sprague Dawley rats, mean, read-out: AUC0-inf
[9] = rat, plasma, sc, single subcutaneous dose 196 nmol/kg, male Sprague Dawley rats, mean, read-out: Cmax
[10] = rat, plasma, single intravenous dose 196 nmol/kg, male Sprague Dawley rats, mean, read-out: AUC0-inf
[11] = rat, plasma, single intravenous dose 196 nmol/kg, male Sprague Dawley rats, mean, read-out: C0
[12] = single intravenous dose 196 nmol/kg, male Sprague Dawley rats, individual animal
[13] = single subcutaneous dose 196 nmol/kg, male Sprague Dawley rats, individual animal

clearance [1]	half-life [1]	clearance [2]	half-life [2]	half-life [3]	CL/F [4]	half-life [5]	CL/F [6]	Tmax [7]	AUC0-inf [8]	Cmax [9]	AUC0-inf [10]	C0 [11]	CL [12]	T1/2 [12]	CL/F [13]	Structure (SMILES)	AUC0-inf [12]	C0 [12]	AUC0-inf [13]	Cmax [13]	further results
4.72 mL/h/kg	17.8 h	4.15 mL/h/kg	20.4 h	19.1 h	11.5 mL/h/kg	18.4 h	10.6 mL/h/kg	18 h	18.9 µM·h	0.394 µM	47.7 µM·h	2.84 µM	3.69 mL/h/kg and 4.05 mL/h/kg	21.7 h and 21.6 h	8.76 mL/h/kg and 11.4 mL/h/kg	CC[C@H](C)[C@H](NC)C(=O)N[C@H](C(=O)N[C@H](C(=O)N[C@@H](CO)C(=O)N[C@@H](CC(C)C)C(=O)N[C@@H](CC(=O)O)C(=O)N[C@H](C(=O)N1CCC[C@H]1C(=O)N[C@H](C(=O)NCC(=O)N[C@@](C)(CC(C)C)C(=O)N[C@@H](CC(C)C)C(=O)N[C@@H](CCC(N)=O)C(=O)N[C@@H](CCCCN)C(=O)N[C@@H](CC(C)C)C(=O)N[C@H](C(=O)N[C@@H](CCC(=O)O)C(=O)N[C@@H](CCC(N)=O)C(=O)N[C@@H](CCC(=O)O)C(=O)N[C@@H](CCCCN)C(=O)N[C@@H](CCC(N)=O)C(=O)N[C@@H](CCC(=O)O)C(=O)N[C@@H](CCCCN)C(=O)N[C@@H](CCC(=O)O)C(=O)N[C@@H](CCCCN)C(=O)N[C@@H](CCC(N)=O)C(=O)N[C@@H](CCC(N)=O)C(=O)N[C@@H](C)C(=O)N[C@@H](CCCCNC(=O)COCCOCCNC(=O)COCCOCCNC(=O)CC[C@H](NC(=O)CCCCCCCCCCCCCCCCCCC(=O)O)C(=O)O)C(=O)N[C@@H](CCC(=O)O)C(=O)N[C@@H](CC(N)=O)C(=O)N[C@H](C(=O)N[C@@H](CCC(=O)O)C(=O)N[C@H](C(=O)N[C@@H](CC(C)C)C(=O)N[C@@H](C)C(=O)N[C@@H](CCC(N)=O)C(=O)N[C@H](C(N)=O)C(C)C)[C@@H](C)CC)[C@@H](C)O)[C@@H](C)CC)[C@@H](C)CC)C(C)C)[C@@H](C)O)C(C)C [SEQ ID NO: 49, (NMeI) VTSLDVPIG αMeL LQKLIEQEKQEKEKQQAK((2-[2-(2-Amino-ethoxy)-ethoxy]-acetyl)2-γE-CO-(CH2)18-CO2H)ENTEILAQV-NH2] (H-[NMeI]VTSLDVPIG[αMeL]LQKLIEQEKQEKEKQQAK([AEEA-AEEA-γGlu-C20 diacid])ENTEILAQV-NH2)	41.5 µM·h and 53.1 µM·h and 48.4 µM·h	2.79 µM and 2.61 µM and 3.11 µM	17.1 µM·h and 22.4 µM·h and 17.3 µM·h	0.34 µM and 0.474 µM and 0.367 µM	T1/2 [13]: 16.0 h and 20.2 h; Tmax [13]: 24 h and 6 h
3.91 mL/h/kg	48.4 h	3.82 mL/h/kg	45.7 h	43.8 h	5.04 mL/h/kg	39.3 h	4.47 mL/h/kg	24 h	48.1 µM·h	0.55 µM	52.1 µM·h	1.19 µM	3.23 mL/h/kg and 4.31 mL/h/kg	49.8 h and 39.0 h	3.73 mL/h/kg and 4.63 mL/h/kg	CC[C@H](C)[C@H](NC(C)=O)C(=O)N[C@H](C(=O)N[C@H](C(=O)N[C@@H](CO)C(=O)N[C@@](C)(CC(C)C)C(=O)N[C@@H](CC(=O)O)C(=O)N[C@@H](C(=O)N1CCC[C@H]1C(=O)N[C@H](C(=O)NC(C)(C)C(=O)N[C@@](C)(CC(C)C)C(=O)N[C@@H](CC(C)C)C(=O)N[C@@H](CCC(N)=O)C(=O)N[C@H](C(=O)N[C@@H](CCCCN)C(=O)N[C@@H](CC(C)C)C(=O)N[C@@H](CCC(=O)O)C(=O)N[C@@H](CCC(N)=O)C(=O)N[C@@H](CCC(=O)O)C(=O)N[C@@H](CCCNC(=N)N)C(=O)N[C@@H](C)C(=O)N[C@@H](CCC(=O)O)C(=O)N[C@@H](CCCCN)C(=O)N[C@@H](C)C(=O)N[C@@H](CCCNC(=N)N)C(=O)N[C@@H](CCC(N)=O)C(=O)N[C@@H](CCC(N)=O)C(=O)N[C@@H](C)C(=O)N[C@@H](CCCCNC(=O)COCCOCCNC(=O)COCCOCCNC(=O)CC[C@H](NC(=O)CCCCCCCCCCCCCCCCCCC(=O)O)C(=O)O)C(=O)N[C@@H](CCC(=O)O)C(=O)N[C@@H](CC(N)=O)C(=O)N[C@H](C(=O)N[C@@H](CCC(=O)O)C(=O)N[C@H](C(=O)N[C@@H](CC(C)C)C(=O)N[C@@H](C)C(=O)N[C@@H](CCC(N)=O)C(=O)N[C@H](C(N)=O)C(C)C)[C@@H](C)CC)[C@@H](C)O)[C@@H](C)CC)[C@@H](C)O)C(C)C)[C@@H](C)O)C(C)C [SEQ ID NO: 41, Ac-IVTS αMeL D (D-Val) PT Aib αMeL LQIKLEQERAEKARQQAK((2-[2-(2-Amino-ethoxy)-ethoxy]-acetyl)2-γE-CO-(CH2)18-CO2H)ENTEILAQV-NH2] (Ac-IVTS[αMeL]D[dV]PT[Aib][αMeL]LQIKLEQERAEKARQQAK([AEEA-AEEA-γGlu-C20 diacid])ENTEILAQV-NH2)	50.1 µM·h and 60.6 µM·h and 45.5 µM·h	1.35 µM and 1.62 µM and 0.586 µM	43.1 µM·h and 56.2 µM·h and 45 µM·h	0.467 µM and 0.645 µM and 0.539 µM	Tmax (male, Sprague Dawley, rat, plasma, sc, 196 nmol/kg, single subcutaneous dose 196 nmol/kg, individual animal, read-out: Tmax): 24 h; T1/2 [13]: 36.5 h and 37.7 h
